Values of other authors, collected in patent US20130172186A1 (priority 2010, published 2013).
Read-outs that look alike come from different tables or passages of the source.

Legend:
[1] = test system: phytoalexins and phenols in potato tubers; details: tubers from treated plants after P. infestans challenge
P. cinnamomi = details: 40 μg/ml phosphonate in culture, 4 days later

CCO[PH](=O)O [fosetyl-Al, aluminium tris(o-etyl phosphonate)]
increase of accumulation of phenols vs control tubers [1]: fivefold
increase of accumulation of phytoalexins vs control tubers [1]: approximately tenfold
observed instances in which pathogen growth was arrested at the local hypersensitive cell death sites (P. nicotianae; in vivo): 86%

phosphite
observed instances in which pathogen growth was arrested at the local hypersensitive cell death sites (P. nicotianae; fosetyl-Al (100 μg/ml)- or phosphite (70 μg/ml)-treated tobacco seedlings, in 24 h): 86%

phosphonate
P. cinnamomi growth inhibited (P. cinnamomi): about 70%
